Test results published in patent publication US11534398B2, “Inhaled preparation of isoglycyrrhizic acid or salt thereof, and use in preparing drugs for treating respiratory system diseases” (priority 2016, dated 2022).
Values joined by “and” are separate entries in the source; they are usually repeats but may differ in a detail not shown here. Equal values may be shown once. Read-outs that look alike come from different tables or passages of the source. Marks after values point to notes of the source that are not given here.

What was measured:
[1] = Particle size of micronized magnesium isoglycyrrhizinate; assay type: physicochemical; conditions: micronized active ingredient
Text: The magnesium isoglycyrrhizinate was micronized to obtain samples having the following different particle size ranges.

[2] = system: tracheal secretion in mice; assay: Mouse phenol red excretion assay (tracheal secretion); assay type: in vivo, ICR mice; conditions: 1.0 g/kg/d*6 d, i.g. 6 d
Method: 50 male ICR mice, weighing about 21 g, were randomly divided into 5 groups: control group 1 (normal saline, NS), control group 2 (normal saline, NS), positive control group (ammonium chloride, 1 g/kg), drug group 1 (0.2 mg/ml of magnesium isoglycyrrhizinate liquid preparation for use in nebulizers, nebulizing for 30 min), drug group 2 (0.2 mg/ml of magnesium isoglycyrrhizinate liquid preparation for use in nebulizers, nebulizing for 15 min). The mice in control group 1 and the positive control group were intragastrically administered with the corresponding drugs (0.1 ml/10 g), the mice in control group 2 and the drug group 1 were aerosolizing administered with a nebulizer for 30 min, while the mice in drug group 2 were 15 min. The administration frequency was once a day for 6 consecutive days. Before the 6th administration, the mice were starved for 16-18 hours, only allowed for drinking water. After 30 minutes of administration, i.p. 1% phenol red physiological in saline solution 0.2 ml/10 g was injected and 30 minutes later, the mice were killed by cervical dislocation. […] Among them, each drug group was compared with the control group 2, ^ΔΔp<0.01.

[3] = system: COPD rats; assay: General symptoms of COPD rats (cigarette smoke inhalation model); assay type: in vivo, SD rats; conditions: high dose and low dose tracheal infusion and nebulization, versus model group
Method: After modeling chronic obstructive pulmonary disease model induced by cigarette smoke inhalation, male SD rats were randomly divided into 6 groups according to the body weight: high dose tracheal instillation group (1.67 mg/ml of magnesium isoglycyrrhizinate, 100 μl/rat), low dose tracheal instillation group (1.67 mg/ml, 25 μl/rat), aerosolizing inhalation group, model group and blank control group, 10 rats in each group. During the intervention period, except that the control group and the model group were given normal saline, the other groups were successive administered every day, lasted for 15 days. During the administration period, the administration groups continued to be given with smoke stimulation after 30 minutes of administration, and the mental state, breathing, activity, hair luster, weight gain of the rats were recorded every day. 12 hour after the last administration, whole blood was taken from the rat eye for determination of white blood cell count and cell classified comparison. […] The right lung was ligated at the right main branch, and the left lung was lavaged with normal saline 2 ml×3 times. […] Finally, the right lung of rat was fixed with 10% formalin and HE stained, lung injury was observed under microscope, and pathological lesions were scored. All scores were accumulated, and the average score of each animal in each group was calculated (mean±SD).

[4] = Pharmacokinetic evaluation after inhalation/intragastric administration to rats; assay type: in vivo, SD rats; conditions: for Cmax/Dose: in (µg/L)/(mg/kg); for AUC(0-t)/Dose: in (µg·h/L)/(mg/kg); for MRT last: read-out: MRT(0-t); for half-life: read-out: t½ z (converted)
Method: Eight healthy male SD rats, weighing 223-252 g, were fed with standard formula granule feed of rats on time every day. The rats were fasted for 16 h before the experiment, and were refeeded at 4 h after the administration. Drinking water was free before, after and during the experiment. The rats were randomly divided into two groups, 4 rats in each group, and each rat was inhalation administrated with a single dose of magnesium isoglycyrrhizinate liquid preparation for use in nebulizers (2.5 mg/mL) and intragastric administrated with magnesium isoglycyrrhizinate inhaled preparation (5.0 mg/mL, the amount of isoglycyrrhizic acid is 4.486 mg/mL) respectively. Each rat in the inhalation administration group was given 200 μL of magnesium isoglycyrrhizinate liquid preparation for use in nebulizers (the actual dose given to the rat was 2.24-2.49 mg/kg). The dose in the intragastric administration group was 10.0 mg/kg. 0.2-0.3 mL of blood was taken from the fundus venous plexus before administration (0 h) and 0.0833 h, 0.25 h, 0.5 h, 1 h, 2 h, 4 h, 6 h, 8 h, 10 h, 24 h after administration. EDTA-K2 was used for anticoagulation, and the plasma was centrifuged. Then 50 μL was accurately measured, added with 10 μL internal standard solution to vortex and mixed, then added with 200 μL methanol, and mixed in high speed vortex mixer for 3 min, centrifuged for 10 min (4° C., 13000 rpm). The supernatant was collected, and 100 μL thereof was transferred to a 96-well plate. 50 μL of ultrapure water was added, vortexed, LC-MS/MS was used for detection, and the chromatogram was recorded.

[5] = system: COPD rats; assay: White blood cell count and cell classified comparison in blood of COPD rats; assay type: in vivo, SD rats
Method: (§1) After modeling chronic obstructive pulmonary disease model induced by cigarette smoke inhalation, male SD rats were randomly divided into 6 groups according to the body weight: high dose tracheal instillation group (1.67 mg/ml of magnesium isoglycyrrhizinate, 100 μl/rat), low dose tracheal instillation group (1.67 mg/ml, 25 μl/rat), aerosolizing inhalation group, model group and blank control group, 10 rats in each group. During the intervention period, except that the control group and the model group were given normal saline, the other groups were successive administered every day, lasted for 15 days. During the administration period, the administration groups continued to be given with smoke stimulation after 30 minutes of administration, and the mental state, breathing, activity, hair luster, weight gain of the rats were recorded every day. 12 hour after the last administration, whole blood was taken from the rat eye for determination of white blood cell count and cell classified comparison. […] The right lung was ligated at the right main branch, and the left lung was lavaged with normal saline 2 ml×3 times. The recovery rate was about 80%. The bronchoalveolar lavage fluid (BALF) was prepared for the determination of white blood cell count and classified comparison (white blood cells, neutrophils, lymphocytes and monocytes). Finally, the right lung of rat was fixed with 10% formalin and HE stained, lung injury was observed under microscope, and pathological lesions were scored. All scores were accumulated, and the average score of each animal in each group was calculated (mean±SD).
(§2) The experimental result data was expressed in the form of mean±SD. One-way ANOVA combined with Post-Hoc (LSD method) was used to analyze the differences between groups. Statistical significance was expressed as a P value of less than 0.05. The model group was compared with the blank control group, #p<0.05, #p<0.01; each administration group of magnesium isoglycyrrhizinate was compared with the model group, *p<0.05, **p<0.01.

[6] = system: COPD rats; assay: Pathological score of lung of COPD rats (HE staining); assay type: in vivo, SD rats; parameters: key to Pathological score, Comprehensive score / Pathological score, Emphysema / Pathological score, Inflammatory cell infiltration / Pathological score, Bronchial mucus secretion: lesion score 0 = none, 0.5 slight … 4 = very severe; group mean±SD
Method: as §1
Scoring indicators: (1) whether there was mucus and cell blockage in the small airway cavity; (2) whether the small airway epithelium had necrotic erosion; (3) small airway epithelial cells goblet cell metaplasia; (4) small airway epithelial cell squamous metaplasia; (5) small airway wall inflammation cell infiltration; (6) small airway wall fibrous connective tissue hyperplasia; (7) small airway wall smooth muscle hyperplasia; (8) small airway wall pigmentation; and (9) lung emphysema. Lesion score: according to the degree from light to heavy lesions, it was quantified as slight or very small amount for “0.5 point”, mild or small amount for “1 point”, moderate or more quantity amount for “2 points”, severe or plenty amount for “3 points”, very severe or large amount for “4 points”, and no obvious lesions for 0 point.
as §2

[7] = Body weight of COPD rats (cigarette smoke inhalation model); assay type: in vivo, SD rats; conditions: in g (unit assumed)
Method: as §1, §2

[8] = intravenous, 30.0 mg/kg, cited from earlier work
[9] = system: COPD rats; assay: White blood cell count and cell classified comparison in BALF of COPD rats; assay type: in vivo, SD rats
Method: as §1, §2

[10] = male, SD, rat, plasma, inhaled or intranasal, inhalation, 2.4 mg/kg
[11] = male, SD, rat, plasma, po, intragastric, 10 mg/kg
[12] = aerosolizing inhalation, 0.4 mg/ml, 30 min
[13] = high dose tracheal instillation, 1.67 mg/ml, 100 μl
[14] = low dose tracheal instillation, 1.67 mg/ml, 25 μl

## CC1(C)[C@@H](O[C@H]2O[C@H](C(=O)[O-])[C@@H](O)[C@H](O)[C@H]2O[C@@H]2O[C@H](C(=O)[O-])[C@@H](O)[C@H](O)[C@H]2O)CC[C@]2(C)[C@H]3C(=O)C=C4[C@H]5C[C@@](C)(C(=O)O)CC[C@]5(C)CC[C@@]4(C)[C@]3(C)CC[C@@H]12.[Mg+2] [Medium particle size, magnesium isoglycyrrhizinate]
[1]
  X10: 1.38 μm
  X50: 5.08 μm

## CC1(C)[C@@H](O[C@H]2O[C@H](C(=O)[O-])[C@@H](O)[C@H](O)[C@H]2O[C@@H]2O[C@H](C(=O)[O-])[C@@H](O)[C@H](O)[C@H]2O)CC[C@]2(C)[C@H]3C(=O)C=C4[C@H]5C[C@@](C)(C(=O)O)CC[C@]5(C)CC[C@@]4(C)[C@]3(C)CC[C@@H]12.[Mg+2] [Small particle size, magnesium isoglycyrrhizinate]
[1]
  X10: 0.58 μm
  X50: 2.03 μm

## Cl.N [ammonium chloride]
[2]
  Amount of phenol red excretion: 0.5924 ± 0.3781 µg/mL

## CC1(C)[C@@H](O[C@H]2O[C@H](C(=O)[O-])[C@@H](O)[C@H](O)[C@H]2O[C@@H]2O[C@H](C(=O)[O-])[C@@H](O)[C@H](O)[C@H]2O)CC[C@]2(C)[C@H]3C(=O)C=C4[C@H]5C[C@@](C)(C(=O)O)CC[C@]5(C)CC[C@@]4(C)[C@]3(C)CC[C@@H]12.[Mg+2] [Large particle size, magnesium isoglycyrrhizinate]
[1]
  X10: 1.47 μm
  X50: 5.75 μm

## CC1(C)[C@@H](O[C@H]2O[C@H](C(=O)[O-])[C@@H](O)[C@H](O)[C@H]2O[C@@H]2O[C@H](C(=O)[O-])[C@@H](O)[C@H](O)[C@H]2O)CC[C@]2(C)[C@H]3C(=O)C=C4[C@H]5C[C@@](C)(C(=O)O)CC[C@]5(C)CC[C@@]4(C)[C@]3(C)CC[C@@H]12.[Mg+2] [magnesium isoglycyrrhizinate, magnesium (18α,20β)-20-carboxy-11-oxo-30-norolean-12-ene-3β-yl-2-O-β-D-pyranoglucuronyl-α-D-pyranoglucuronate]
[3]
  General symptoms of COPD rats: relieved compared with the model group
[4]; inhalation, 2.4 mg/kg
  CLz/F: 3.25 mL/min/kg and 3.25 ± 1.72 mL/min/kg
  t½ z: 2.13 ± 0.69 h
  Cmax/Dose: 1315 and 1315 ± 306
  AUC(0-t)/Dose: 6108 and 6108 ± 2577
[4]; intragastric, 10 mg/kg
  CLz/F: 2700 mL/min/kg
  Cmax/Dose: 2.73
  AUC(0-t)/Dose: 8.98
[4]; male, SD, rat, inhaled or intranasal, inhalation, liquid preparation for nebulizers 2.5 mg/mL, 200 μL, 2.4 mg/kg, plasma
  Cmax: 3110 ng/mL
[4]; [10]
  AUC(0-inf): 14600 ng·h/mL
  AUC(0-t): 14600 ng·h/mL
  Tmax: 0.81 h
  MRT last: 3.52 h
  half-life: 2.13 h
[4]; male, SD, rat, plasma, inhaled, inhalation compared with intravenous administration (literature), read-out: Relative F %
  bioavailability: 87%
[4]; [11]
  AUC(0-inf): 102 ng·h/mL
  AUC(0-t): 89.8 ng·h/mL
  Tmax: 1.75 h
  MRT last: 2.35 h
  half-life: 1.88 h
[4]; male, SD, rat, po, intragastric, 5.0 mg/mL, 10 mg/kg, plasma
  Cmax: 27.3 ng/mL
[5]; [12]
  Neutrophil count: 123.67 ± 23.24** 10/μl
  Percentage of neutrophils: 11.05 ± 1.61** %
  White blood cell count: 1123.33 ± 170.54 10/μl
[5]; [13]
  Neutrophil count: 153.25 ± 40.12* 10/μl
  Percentage of neutrophils: 11.31 ± 3.55* %
  White blood cell count: 1395.13 ± 270.32 10/μl
[5]; [14]
  Neutrophil count: 155.13 ± 26.25* 10/μl
  Percentage of neutrophils: 13.80 ± 2.24* %
  White blood cell count: 1135.13 ± 155.73 10/μl
[6]; [12]
  Pathological score, Bronchial mucus secretion: 0.278 ± 0.363
  Pathological score, Comprehensive score: 0.89 ± 0.65*
  Pathological score, Emphysema: 0.222 ± 0.441
  Pathological score, Inflammatory cell infiltration: 0.389 ± 0.333**
[6]; [13]
  Pathological score, Bronchial mucus secretion: 0.050 ± 0.158**
  Pathological score, Comprehensive score: 0.90 ± 0.52*
  Pathological score, Emphysema: 0.300 ± 0.422
  Pathological score, Inflammatory cell infiltration: 0.450 ± 0.550*
[6]; high dose, low dose tracheal infusion and aerosolizing inhalation groups
  Lung pathology of COPD rats (in words): significantly reduce lung inflammation, improve bronchial wall function, reduce bronchial mucus secretion and improve emphysema
[6]; [14]
  Pathological score, Bronchial mucus secretion: 0.200 ± 0.350
  Pathological score, Comprehensive score: 0.80 ± 0.50*
  Pathological score, Emphysema: 0.150 ± 0.337
  Pathological score, Inflammatory cell infiltration: 0.400 ± 0.394**
[7]; [12]
  Body weight, End weight: 360.11 ± 18.84**
  Body weight, Initial weight: 319.22 ± 10.43**
[7]; [13]
  Body weight, End weight: 358.20 ± 16.17**
  Body weight, Initial weight: 324.6 ± 12.22**
[7]; [14]
  Body weight, End weight: 350.80 ± 27.79**
  Body weight, Initial weight: 317.60 ± 24.23**
[8]; N = 6, literature
  Cmax: 354500 ng/mL
[8]; literature
  AUC(0-t): 209591 ng·h/mL
  AUC(0-t)/Dose: 6986
  AUC(0-∞): 212295 ng·h/mL
  CLz/F: 2355 mL/min/kg
  Cmax/Dose: 11817
  MRT(0-t): 1.71 h
  Tmax: 5 min
  t1/2 z: 2.06 h
[9]; [12]
  Neutrophil count: 57.83 ± 20.78 10/μl
  Percentage of neutrophils: 38.83 ± 21.02%
  White blood cell count: 170.33 ± 55.17 10/μl
[9]; [13]
  Neutrophil count: 89.88 ± 21.57* 10/μl
  Percentage of neutrophils: 48.89 ± 9.69%
  White blood cell count: 184.38 ± 32.15 10/μl
[9]; [14]
  Neutrophil count: 66.38 ± 25.46 10/μl
  Percentage of neutrophils: 38.08 ± 12.86%
  White blood cell count: 172.50 ± 26.52 10/μl
